# Measurements as given in US9242937B2, “Pharmaceutically active disubstituted pyridine derivatives” (Bayer Intellectual Property GmbH, priority 2011, dated 2016).
# Assays:
# CDK9 = biological target: T1, CDK9 (Homo sapiens, UniProt P50750); assay: Lance Ultra KinaSelect Assay, CDK9; format: biochemical; conditions: ULight MBP substrate; cyclin partner not stated in Table 5; read-out: CDK9 LANCE assay (activity range), IC50
# T1 construct: purchased Invitrogen
# Protocol: (§1) This protocol describes how the Lance Ultra KinaSelect Assay was performed to determine half maximal inhibitory concentration (IC50) of compounds of general formula (I) and CDK/Cyclin complexes. The principle behind this enzymatic assay is based upon the phosphorylation of the ULight-Peptide Substrat. It is detected by using a specific EU-labeled anti-phospho peptide antibody. The binding of the Eu-labeled anti-phospho peptide antibody to the phosphorylated ULight labeled peptide gives rise to a FRET-signal. Binding of an inhibitor to the kinase prevents phosphorylation of the ULight-MBP Substrat, resulting in a loss of FRET.
# (§2) The compounds of general formula (I) summarized in Table 5 were diluted from a 10 mM DMSO stock solution 1:10 in a total volume of 15 μL DMSO. This compound predilution was then serial diluted 1:3 over 8 steps in DMSO and briefly spun down. Each compound solution was now diluted 1:20 in Enzymatic Buffer (HEPES: 50 mM, pH: 7.5; MgCl2: 10 mM; EGTA: 1 mM; DTT: 2 mM; Tween-20: 0.01%), mixed thoroughly and spun down. For every sample, 2 μL of the diluted compound were mixed with 6 μL CDK/Cyclin/Substrat solution and 2 μL ATP solution in a well of a small volume 384 well plate (Corning Incorporated, Corning, N.Y., USA; order no. 3673). The CDK/Cyclin was diluted to the appropriate concentration (see Table 3) and the ATP concentration was adjusted to its […] for the CDK/Cyclin, which was 3 μM for CDK2/Cyclin A, 20 μM for CDK1/Cyclin B1, 25 μM for CDK7/Cyclin H and CDK9/Cyclin T1, 55 μM for CDK6/Cyclin D3, 90 μM for CDK4/Cyclin D1 and 125 μM for CDK9/Cyclin K. For negative controls, in each well 2 μL of DMSO solution (1% final DMSO assay concentration) was mixed with 6 μL substrate solution (50 nM ULight MBP final assay concentration) and 2 μL ATP solution (appropriate final concentration see Table 3). For positive controls, in each well 2 μL of DMSO solution (1% final DMSO assay concentration) was mixed with 6 μL CDK/Cyclin/Substrat (appropriate final concentration see Table 3) and 2 μL Tracer ATP solution (appropriate final concentration see Table 3). Positive and negative controls were calculated from at least 8 different sample wells. The 384 well plates were mixed in a Teleshaker plate mixer (Beckman Coulter, Brea, Calif., USA) at 2000 rpm for 40 sec, and incubated for 1 h at room temperature. Before reading, 10 μL the detection buffer (Lance Detection Buffer 1×; EDTA: […]; Eu-Anti-P-MBP: see Table 3) was added. The FRET signal was measured at 340 nm excitation, 665 nm and 615 nm emission (for the kinase tracer and LanthaScreen Eu-AB, respectively) with an Envision spectrophotometer (Perkin Elmer, Waltham, Mass., USA) with 50 μs delay and 300 μs integration time. IC50 values were determined from the sigmoidal dose response curves with the software Quattro Workflow (Quattro GmbH, Munich, Germany).
# CDK9/Cyclin T1 = biological target: T2, CDK9/Cyclin T1 (Homo sapiens, UniProt P50750); assay: LanthaScreen Eu Kinase Binding Assay, CDK9/Cyclin T1; conditions: tracer 236, read-out: CDK9/Cyclin T1 (activity range), Kd
# T2 construct: purchased Invitrogen
# T2 sequence (P50750 whole entry): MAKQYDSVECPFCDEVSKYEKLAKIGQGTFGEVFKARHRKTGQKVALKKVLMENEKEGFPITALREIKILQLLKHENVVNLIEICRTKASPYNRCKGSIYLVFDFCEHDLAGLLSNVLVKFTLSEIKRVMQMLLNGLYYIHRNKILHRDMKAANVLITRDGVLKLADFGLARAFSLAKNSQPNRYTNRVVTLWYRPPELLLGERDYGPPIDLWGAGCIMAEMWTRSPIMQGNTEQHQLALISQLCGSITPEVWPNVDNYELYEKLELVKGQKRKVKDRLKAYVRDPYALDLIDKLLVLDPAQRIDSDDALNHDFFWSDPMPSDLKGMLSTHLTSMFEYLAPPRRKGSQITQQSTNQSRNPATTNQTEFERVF
# T2 sequence (O60563 whole entry partner): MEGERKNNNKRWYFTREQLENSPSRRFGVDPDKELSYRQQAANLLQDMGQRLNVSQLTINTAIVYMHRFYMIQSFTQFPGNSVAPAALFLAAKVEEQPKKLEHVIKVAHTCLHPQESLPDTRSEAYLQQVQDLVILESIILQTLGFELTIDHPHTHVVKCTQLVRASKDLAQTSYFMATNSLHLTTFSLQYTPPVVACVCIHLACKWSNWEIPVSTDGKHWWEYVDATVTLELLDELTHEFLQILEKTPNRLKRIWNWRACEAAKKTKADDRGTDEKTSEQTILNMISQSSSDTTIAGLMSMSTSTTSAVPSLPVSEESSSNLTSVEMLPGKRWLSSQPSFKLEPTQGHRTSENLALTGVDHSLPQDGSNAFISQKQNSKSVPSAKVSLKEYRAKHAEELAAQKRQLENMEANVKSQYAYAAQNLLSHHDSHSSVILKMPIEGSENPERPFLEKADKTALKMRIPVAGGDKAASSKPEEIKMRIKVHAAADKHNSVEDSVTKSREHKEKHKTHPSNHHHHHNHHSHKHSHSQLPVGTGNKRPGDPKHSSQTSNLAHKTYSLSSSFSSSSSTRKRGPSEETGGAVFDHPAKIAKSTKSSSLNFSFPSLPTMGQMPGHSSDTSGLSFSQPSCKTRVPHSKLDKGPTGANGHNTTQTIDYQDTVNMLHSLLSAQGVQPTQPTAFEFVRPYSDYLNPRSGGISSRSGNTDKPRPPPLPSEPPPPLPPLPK
# Protocol: (§3) This protocol describes how the LanthaScreen Eu Kinase Binding Assay was performed to determine dissociation constants (Kd) of compounds of general formula (I) and CDK/Cyclin complexes. The principle behind this assay is based upon the binding and displacement of an Alexa Fluor 647-labeled tracer, which binds to the active site of kinases. Binding of the tracer to the kinase is detected using a Eu-labeled antibody. Simultaneous binding of both the tracer and antibody to the kinase gives rise to a FRET-signal. Binding of an inhibitor to the kinase competes for binding with the tracer, resulting in a loss of FRET.
# (§4) The compounds of general formula (I) summarized in Table 1 were diluted from a 10 mM DMSO stock solution 1:10 in a total volume of 15 μL DMSO. This compound predilution was then serial diluted 1:3 over 8 steps in DMSO and briefly spun down. Each compound solution was now diluted 1:33.33 in kinase buffer (HEPES: 20 mM, pH: 8.0; MgCl2: 10 mM; DTT: 1 mM; Brij-35: 0.01%), mixed thoroughly and spun down. For every sample, 5 μL of the diluted compound were mixed with 5 μL tracer working solution (e.g. 60 nM tracer 236 in kinase buffer for CDK2/Cyclin A) and 5 μL CDK/Cyclin/Anti-GST-AB-working solution (e.g. 15 nM CDK2/Cyclin A, 1:250 dilution of Anti-GST-AB in kinase buffer) in a well of a small volume 384 well plate (Corning Incorporated, Corning, N.Y., USA; order no. 3673). The tracer concentration was adjusted to its dissociation constant (Kd) for the CDK/Cyclin, which was 30 nM for CDK2/Cyclin A, CDK7/Cyclin H and CDK9/Cyclin T1, 20 nM for CDK8/Cyclin C, and 35 nM for CDK9/Cyclin K. For negative controls, in each well 5 μL of DMSO working solution (3% DMSO diluted in kinase buffer) was mixed with 5 μL Anti-GST-AB working solution (e.g. 1:250 dilution of Anti-GST-AB in kinase buffer for CDK2/Cyclin A) and 5 μL Tracer working solution (e.g. 60 nM Tracer 236 in kinase buffer for CDK2/Cyclin A). For positive controls, in each well 5 μL of DMSO working solution (3% DMSO diluted in kinase buffer) was mixed with 5 μL CDK/Cyclin/Anti-GST-AB-working solution: (e.g. 15 nM CDK2/Cyclin A, 1:250 dilution of Anti-GST-AB in kinase buffer) and 5 μL Tracer working solution (e.g. 60 nM Tracer 236 in kinase buffer for CDK2/Cyclin A). Positive and negative controls were calculated from at least 8 different sample wells. The 384 well plates were mixed in a Teleshaker plate mixer (Beckman Coulter, Brea, Calif., USA) at 2000 rpm for 40 sec, and incubated for 1 h at room temperature before reading. The FRET signal was measured at 340 nm excitation, 665 nm and 615 nm emission (for the kinase tracer and LanthaScreen Eu-AB, respectively) with an Envision spectrophotometer (Perkin Elmer, Waltham, Mass., USA) with 50 μs delay and 300 μs integration time. Kd values were determined from the sigmoidal dose response curves with the software Quattro Workflow (Quattro GmbH, Munich, Germany).
# CDK2/CyclinA = biological target: T3, CDK2/CyclinA (Homo sapiens, UniProt P24941); assay: Lance Ultra KinaSelect Assay, CDK2; format: biochemical; conditions: ULight MBP substrate, ATP 3 μM; read-out: CDK2 LANCE assay (activity range), IC50
# T3 construct: purchased Proqinase
# Protocol: as §1, §2
# CDK7/CyclinH/MAT1 [1] = biological target: T4, CDK7/CyclinH/MAT1 (Homo sapiens, UniProt P50613); assay: Lance Ultra KinaSelect Assay, CDK7; format: biochemical; conditions: ULight MBP substrate, ATP 25 μM; read-out: CDK7 LANCE assay (activity range), IC50
# T4 construct: purchased Carna Biosciences
# T4 sequence (P50613 whole entry): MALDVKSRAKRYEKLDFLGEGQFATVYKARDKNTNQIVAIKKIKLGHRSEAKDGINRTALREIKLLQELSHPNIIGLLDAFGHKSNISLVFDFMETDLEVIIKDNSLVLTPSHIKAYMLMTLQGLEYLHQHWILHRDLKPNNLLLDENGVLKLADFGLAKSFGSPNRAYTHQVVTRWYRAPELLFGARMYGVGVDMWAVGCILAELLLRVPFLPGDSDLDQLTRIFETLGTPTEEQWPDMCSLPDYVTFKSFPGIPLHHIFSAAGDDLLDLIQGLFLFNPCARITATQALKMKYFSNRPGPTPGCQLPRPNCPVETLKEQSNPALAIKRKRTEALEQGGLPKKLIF
# T4 sequence (P51946 whole entry partner): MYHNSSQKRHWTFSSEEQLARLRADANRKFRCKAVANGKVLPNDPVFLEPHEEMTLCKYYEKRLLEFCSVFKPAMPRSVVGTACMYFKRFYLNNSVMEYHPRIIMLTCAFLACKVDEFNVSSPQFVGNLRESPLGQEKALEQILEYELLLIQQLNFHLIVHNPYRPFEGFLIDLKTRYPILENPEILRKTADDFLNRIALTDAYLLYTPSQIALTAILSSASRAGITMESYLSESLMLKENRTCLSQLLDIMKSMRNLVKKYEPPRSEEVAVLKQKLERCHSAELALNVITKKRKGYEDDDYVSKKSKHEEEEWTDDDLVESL
# T4 sequence (P51948 whole entry partner): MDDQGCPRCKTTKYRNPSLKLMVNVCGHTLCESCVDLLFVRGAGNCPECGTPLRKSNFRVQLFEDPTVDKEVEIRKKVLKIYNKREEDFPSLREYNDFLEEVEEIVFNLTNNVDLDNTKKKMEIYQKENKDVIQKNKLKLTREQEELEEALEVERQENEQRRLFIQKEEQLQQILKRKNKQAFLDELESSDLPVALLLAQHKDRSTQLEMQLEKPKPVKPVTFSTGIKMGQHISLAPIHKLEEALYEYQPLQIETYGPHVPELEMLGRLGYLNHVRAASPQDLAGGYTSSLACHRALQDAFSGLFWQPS
# Protocol: as §1, §2
# CDK7/CyclinH/MAT1 [2] = biological target: T4, CDK7/CyclinH/MAT1; assay: LanthaScreen Eu Kinase Binding Assay, CDK7; conditions: tracer 236, read-out: CDK7 (activity range), Kd
# Protocol: as §3, §4
# T1 sequence (P50750 whole entry): as the sequence (P50750 whole entry) above
SMILES,IC50 (CDK9),Kd (CDK9/Cyclin T1),IC50 (CDK2/CyclinA),IC50 (CDK7/CyclinH/MAT1 [1]),Kd (CDK7/CyclinH/MAT1 [2])
"COc1ccccc1-c1ccnc(Nc2cccc([N+](=O)[O-])c2)c1 [Compound C1, 4-(2-Methoxyphenyl)-N-(3-nitrophenyl)pyridin-2-amine]",1000 to 10000 nM,100 to 1000 nM,,,
"COc1ccccc1-c1ccnc(Nc2ccc(S(N)(=O)=O)cc2)c1 [Compound E1, 4-[(4-(2-Methoxyphenyl)pyridin-2-yl)amino]benzenesulfonamide]",100 to 1000 nM,100 to 1000 nM,< 100 nM,> 10000 nM,> 10000 nM
"COc1ccccc1-c1ccnc(Nc2ccccc2)c1 [Compound B1, 4-(2-Methoxyphenyl)-N-phenylpyridin-2-amine]",1000 to 10000 nM,1000 to 10000 nM,,,
"COc1ccccc1-c1ccnc(Nc2cccc(S(N)(=O)=O)c2)c1 [Compound D1, 3-[(4-(2-Methoxyphenyl)pyridin-2-yl)amino]benzenesulfonamide]",< 100 nM,< 100 nM,100 to 1000 nM,> 10000 nM,> 10000 nM

# Other lines, results leading:
IC50 (CDK9),Kd (CDK9/Cyclin T1),IC50 (CDK2/CyclinA),IC50 (CDK7/CyclinH/MAT1 [1]),Kd (CDK7/CyclinH/MAT1 [2]),SMILES
< 100 nM,< 100 nM,1000 to 10000 nM,> 10000 nM,> 10000 nM,"COc1cc(F)ccc1-c1ccnc(Nc2cccc(CS(N)(=O)=O)c2)c1 [Compound G1, [3-((4-(4-Fluoro-2-methoxyphenyl)pyridin-2-yl)amino)phenyl]-methanesulfonamide]"
100 to 1000 nM,< 100 nM,1000 to 10000 nM,> 10000 nM,> 10000 nM,"CCCNS(=O)(=O)Cc1cccc(Nc2cc(-c3ccc(F)cc3OC)ccn2)c1 [Compound K1, 1-[3-((4-(4-Fluoro-2-methoxyphenyl)pyridin-2-yl)amino)phenyl]-N-propylmethanesulfonamide]"
< 100 nM,< 100 nM,,,,"COc1ccccc1-c1ccnc(Nc2cccc(S(C)(=O)=O)c2)c1 [Compound F1, 4-(2-Methoxyphenyl)-N-(3-(methylsulfonyl)phenyl)pyridin-2-amine]"
< 100 nM,< 100 nM,100 to 1000 nM,> 10000 nM,1000 to 10000 nM,"COc1cc(F)ccc1-c1ccnc(Nc2cccc(NS(C)(=O)=O)c2)c1 [Compound J1, N-[3-((4-(4-Fluoro-2-methoxyphenyl)pyridin-2-yl)amino)phenyl]-methanesulfonamide]"
< 100 nM,< 100 nM,100 to 1000 nM,> 10000 nM,> 10000 nM,"COc1cc(F)ccc1-c1ccnc(Nc2cccc(NC(C)=O)c2)c1 [Compound J2, N-[3-((4-(4-Fluoro-2-methoxyphenyl)pyridin-2-yl)amino)phenyl]-acetamide]"
< 100 nM,< 100 nM,1000 to 10000 nM,> 10000 nM,> 10000 nM,"COc1cc(F)ccc1-c1ccnc(Nc2cccc(CS(=O)(=O)N(C)C)c2)c1 [Compound G3, 1-[3-((4-(4-Fluoro-2-methoxyphenyl)pyridin-2-yl)amino)phenyl]-N,N-dimethylmethanesulfonamide]"
